According to patent US8293700B2, “Anti-bacterial composition especially for controlling gram-negative bacteria, comprising a peptide and an advantageously hydrophobic anti-bacterial agent” (Cellectis, priority 2003, dated 2012):
Where no end group is shown, it is not given here.

How the values were obtained:
[1] = system: Escherichia coli ATCC 25922; assay: Internalization of DPV fluorescent conjugates in E. coli (epifluorescence microscopy); assay type: cell-based; conditions: tested as Bodipy conjugate, 1 μM, 30 minutes at 37° C., non-fixed bacteria
Method: (§1) The bacteria in an exponential phase of culture were centrifuged and washed three times with the 10 mM, pH7.4 sodium phosphate buffer (NAPB buffer). The bacterial concentration was adjusted to 1×10^6 cfu/ml (colony-forming units) in the NAPB buffer. 50 μl of the bacterial suspension was deposited on a poly-L-Lysine slide. After 30 minutes incubation at 37° C. in a humid chamber, the bacteria immobilized on the slide were rinsed three times with the NAPB buffer. A 50 μl solution of DPV-Bodipy or DPV-TMR conjugate or control product was, deposited on the bacteria. After incubation for 30 minutes at 37° C. in a humidity chamber and away from light, the slides were rinsed three times with the NAPB buffer. The bacteria may be fixed on the slide by incubating 20 minutes at 37° C., away from light. A drop of 50% PBS/Glycerol was deposited on the slide and covered by a cover glass. After sealing the cover glass on the slide, bacterial fluorescence was observed under a Leica epifluorescence optical microscope (40× or 63× immersion lens). The images were taken with a digital Nikon Coolpix camera with maximum zoom and a 0.63× adapter. A more detailed analysis was performed with a confocal Bio-rad MRC 600 microscope (BIO-RAD Microscience Ltd., Hemel Hempstead, England), provided with an inverse optical microscope and an ×100 immersion lens. The bacteria were visualized by their fluorescence after excitation with a krypton/argon laser. Several sections of 0.1-0.2 μm bacteria were made.
The immobilized bacteria on a poly-L-Lysine slide were incubated with 1 μM of DPV-Bodipy conjugate for 30 minutes at 37° C.
The E. coli bacteria were incubated for 30 minutes at 37° C. with 1 μM of DPV-Bodipy conjugate, as described in paragraph I.8.a. The internalization of fluorescent DPV-Bodipy conjugates in the non-fixed bacteria was visualized under an epifluorescence microscope. […] With the DPV11 and DPV12 peptides (FIGS. 31 and 3J), heterogeneous fluorescence levels in one single bacterial population was obtained. The internalization properties of these peptides were weaker. […] (FIG. 3L).
The internalization of the DPV3 TMR conjugate was evaluated on E. coli bacteria immobilized on a poly-L-Lysine slide or in suspension. The bacteria were incubated with 1 μM of DPV3-TMR conjugate or the Cyst-TMR control for 30 minutes at 37° C., and then either fixed or not on the slide before visualization in an epifluorescence optical microscope.

eukaryotic cells = conditions: cited from earlier work; for Localization in the eukaryotic cells: chemically coupled to the peroxydase protein or IgG, WO 01/64738
[2] = system: Gram-negative bacterium (E. coli, P. aeruginosa); assay: Classification of DPVs by internalization level in the two bacterial strains; assay type: cell-based; conditions: for Classification of DPVs: level of internalization: DPV-Bodipy conjugates, accumulation in bacterial cytoplasm, E. coli and P. aeruginosa; for Internalization properties in prokaryotic cells (Gram-negative bacteria): compared with the eukaryotic cell
Method: as §1
Generally, the internalization of DPV is almost identical for the two bacterial strains that were studied.

[3] = system: Pseudomonas aeruginosa ATCC 27853; assay: Internalization of DPV-Bodipy conjugates in P. aeruginosa (epifluorescence microscopy); assay type: cell-based; conditions: tested as Bodipy conjugate, 1 μM, 30 minutes at 37° C.
Method: as §1, with “A more detailed analysis was performed with a confocal Bio-rad MRC 600 microscope (BIO-RAD Microscience Ltd., Hemel Hempstead, England), provided with an inverse optical microscope and an ×100 immersion lens.” left out, “Several sections of 0.1-0.2 μm bacteria were made.” left out

E. coli ATCC 25922 = assay: Chessboard method, DPV peptide and erythromycin, E. coli; assay type: cell-based, Escherichia coli; conditions: MH medium, 18 hours at 37° C.
Method: The dilution ranges were prepared according to a geometric progression of ration 2. 25 μl of the product solutions in MH medium with a concentration four times higher than the desired final concentration or 25 μl of the MH medium (for the lines 0), were distributed in the wells according to the chart below (Table 2), in order to obtain a final volume of 50 μl per well: An isolated colony of the bacterium E. coli ATCC 25922 or P. aeruginosa ATCC 27853 was placed in suspension in 3 to 5 ml of the MH culture medium and incubated at 37° C. for one night, while stirring. From this night culture, a culture in exponential growth phase of the strain was made; the MH medium was seeded at 1/50 é with the night culture and incubated for two hours at 37° C., while stirring. The bacterial concentration was adjusted to 5×10^5-10 s cfu/ml (colony-forming units) in the MH medium. […] The CMI was expressed in μg/ml (mg/1). […] An index below or equal to 0.5 indicates a synergy, an index above 2, an antagonism.

P. aeruginosa = assay: Confocal microscopy localization in P. aeruginosa; assay type: cell-based, Pseudomonas aeruginosa; conditions: 3 μM, 37° C., 30 mins., bacteria fixed
Method: as §1, with “A more detailed analysis was performed with a confocal Bio-rad MRC 600 microscope (BIO-RAD Microscience Ltd., Hemel Hempstead, England), provided with an inverse optical microscope and an ×100 immersion lens.” left out, “Several sections of 0.1-0.2 μm bacteria were made.” left out

| Substance | Internalization in E. coli (description of FIG. 3) [1] | Localization in the eukaryotic cells (eukaryotic cells) | Classification of DPVs: level of internalization [2] | Internalization in P. aeruginosa compared with E. coli (FIG. 5) [3] | Internalization properties in the eukaryotic cell (eukaryotic cells) | Internalization properties in prokaryotic cells (Gram-negative bacteria) [2] | CMI, product alone (E. coli ATCC 25922) | Localization of Bodipy conjugate in P. aeruginosa (confocal, FIG. 6) (P. aeruginosa) |
| --- | --- | --- | --- | --- | --- | --- | --- | --- |
| Arg Lys Lys Arg Arg Arg Glu Ser Arg Arg Ala Arg Arg Ser Pro Arg His Leu (RKKRRRESRRARRSPRHL; C-terminal Cys; listed as Homo sapiens) [DPV3.10] | highly penetrating | cytoplasmic localization peptides | elevated internalization |  |  |  |  |  |
| Gly Ala Tyr Asp Leu Arg Arg Arg Glu Arg Gin Ser Arg Leu Arg Arg Arg Glu Arg Gin Ser Arg (GAYDLRRRERQSRLRRRERQSR; N-terminal Cys; listed as Homo sapiens) [DPV15b] |  | nuclear localization peptides | weak internalization |  |  |  |  |  |
| Gly Arg Pro Arg Glu Ser Gly Lys Lys Arg Lys Arg Lys Arg Leu Lys Pro (GRPRESGKKRKRKRLKP; C-terminal Cys; listed as Homo sapiens) [DPV6] | highly penetrating | cytoplasmic localization peptides | medium internalization | more internalizing in P. aeruginosa |  |  |  |  |
| Ala Lys Thr Gly Lys Arg Lys Arg Ser Gly (AKTGKRKRSG; C-terminal Cys added; listed as Homo sapiens) [DPV11] | weaker |  |  |  | do not have any internalization properties | same property |  |  |
| Leu Arg Arg Glu Arg Gin Ser Arg Leu Arg Arg Glu Arg Gin Ser Arg (LRRERQSRLRRERQSR; C-terminal Cys; listed as Homo sapiens) [DPV15] | highly penetrating | nuclear localization peptides | medium internalization |  |  |  |  |  |
| Val Lys Arg Gly Leu Lys Leu Arg His Val Arg Pro Arg Val Thr Arg Met Asp Val (VKRGLKLRHVRPRVTRMDV; N-terminal Cys added; listed as Homo sapiens) [DPV1047] |  | nuclear localization peptides | weak internalization |  |  |  |  |  |
| Asn Pro Gly Val Ser Thr Val Val Leu Gly Ala Tyr Asp Leu Arg Arg Arg Glu Arg Gin Ser Arg (NPGVSTVVLGAYDLRRRERQSR; N-terminal Cys; listed as Homo sapiens) [DPV19] | did not penetrate into the bacteria |  |  |  | do not have any internalization properties | same property |  |  |
| RKKRRRESRKKRRRES [DPV3] | highly penetrating | cytoplasmic localization peptides | elevated internalization |  |  |  | 128 µg/mL | able to pass through the external membrane |
| Gly Lys Arg Lys Lys Lys Gly Lys Leu Gly Lys Lys Arg Asp Pro (GKRKKKGKLGKKRDP; C-terminal Cys; listed as Homo sapiens) [DPV7] |  | cytoplasmic localization peptides | medium internalization |  |  |  |  |  |
| Gly Lys Arg Lys Lys Lys Gly Lys Leu Gly Lys Lys Arg Pro Arg Ser Arg (GKRKKKGKLGKKRPRSR; C-terminal Cys; listed as Homo sapiens) [DPV7b] |  | cytoplasmic localization peptides | medium internalization | more internalizing in P. aeruginosa than in E. coli |  |  |  | able to pass through the external membrane |
| Val Lys Arg Gly Leu Lys Leu Arg Gin Lys Tyr Asn Lys Arg Ala Met Asp Tyr (VKRGLKLRQKYNKRAMDY; N-terminal Cys added; listed as Homo sapiens) [DPV1121] |  | nuclear localization peptides | weak internalization |  |  |  |  |  |
| Gin Gly Lys Ser Lys Arg Glu Lys Lys Asp Arg Val Phe (QGKSKREKKDRVF; C-terminal Cys; listed as Homo sapiens) [DPV12] | weaker |  |  |  | do not have any internalization properties | same property |  |  |
